Data set [1] can be described thus: Dissolution of drug or cocrystal in biorelevant media (FaSSIF, FeSSIF). Format: physicochemical. To be noted: for Cmax / AUC (area under the dissolution curve): 25 °C; for Cmax: 150 rpm, 3 h, 300 mg dose in 250 mL equivalent; for AUC (area under the dissolution curve): up to 180 min; for Final pH: after dissolution. The method, then:
(§1) Blank FaSSIF (pH 6.50 phosphate buffer) was prepared at room temperature by dissolving 0.683 g of NaOH (pellets), 7.902 g of NaH2PO4·H2O, and 12.372 g NaCl in 2 L of purified deionized (DI) water. The pH was adjusted to 6.50 (±0.04) with 1 M NaOH and 1 M HCl solutions. Blank FeSSIF (pH 5.00 acetate buffer) was prepared at room temperature by dissolving 8.089 g NaOH (pellets), 16.4 mL acetic acid, and 23.748 g NaCl in 2 L of purified DI water. The pH was adjusted to 5.00 (±0.03) with 1 M NaOH and 1 M HCl solutions. FaSSIF and FeSSIF media were prepared by dissolving appropriate amounts of FaSSIF/FeSSIF powder in the blank media according to the manufacturer, then stored at room temperature and used within 48 hours. Blank FaSSGF (pH 1.60 buffer) was prepared at room temperature by dissolving 1.999 g of sodium chloride in 1 L of DI water. The pH was adjusted to 1.60 (±0.05) with 2 M HCl solution.
Dissolution studies of drug or cocrystal were conducted using an overhead stirrer with a glass propeller at 150 rpm over three hours. Based on a 300 mg dose in 250 mL, 36 mg of PSZ drug or 46.6 mg PSZ-4ABA cocrystal (molar equivalent PSZ amount) were added to 30 mL of dissolution media. Dissolution studies were done in FaSSIF and FeSSIF with sieved fractions of drug and cocrystals in a particle size range of 106 to 125 μm. The dissolution experiments were conducted in a water bath at 25.0 (±0.5) ° C. Initial and final solution pH was measured. Aliquots of 0.5 mL were taken with a syringe at time points up to 180 minutes. The solution samples were filtered through syringe filter with PvDF membrane of a pore size of 0.45 μm. The solution concentrations of drug and coformer were analyzed with a Waters HPLC equipped with a photodiode array UV detector. A Waters Atlantis C18 column with the dimension of 5 μm, 250×4.6 mm was used for separation. A gradient method using methanol and water with 0.1% trifluoroacetic acid was run with the flow rate set at 1 mL/min. […] The wavelengths used for the analytes were […] for PSZ, and 287 nm for 4ABA.

The conditions of data set [2]: cited from earlier work.
Data set [3] in a line: Cocrystal eutectic constant (Keu): coformer and drug concentrations at the eutectic point in buffers and biorelevant media. Format: physicochemical. The note with it: for solubility: thermodynamic from solid, read-out: [PSZ]eu (also solubility of drug at equilibrium); for solubility / Keu ([coformer]eu/[drug]eu) / [4ABA]eu (coformer concentration at the eutectic point): 25 °C. The method, then: as §1
Cocrystal eutectic constant (Keu), which is well recognized as a key stability and solubility indicator, was determined from measurement of coformer and drug concentrations at the eutectic point, where drug and cocrystal solid phases are in equilibrium with solution according to Keu=[coformer]eu/[drug]eu. An excess amount of PSZ (approximately 200 mg) and 150 mg of PSZ-4ABA were suspended in 3 mL of blank FaSSGF, blank FaSSIF, blank FeSSIF, FaSSIF, or FeSSIF media. Biorelevant media included FaSSIF and FeSSIF. Blank media was the buffer solution in the biorelevant media without the lecithin and bile salt. The suspensions were kept in a water bath at 25.0±0.1° C. and magnetically stirred for up to 72-96 hours. Sample solutions were filtered through 0.45 μm cellulose acetate filters and analyzed by HPLC. The pH was measured and the equilibrium solids were characterized by DSC and PXRD.
Keu is proportional to the cocrystal solubility advantage over drug (SA=Scc/Sdrug), and for a 2:3 cocrystal is given by
[formula] […] Scc is lower than Sdrug when Keu is lower than 1.5. See is equal to Sdrug when Keu is equal to 1.5. The higher the Keu value, the higher is the cocrystal solubility advantage over drug (SA) and Scc.

The conditions of data set [4]: in vivo; cited from earlier work.

Values after ≈ are worked out from the molar mass of the structure shown. Values joined by “and” are separate entries in the source; they are usually repeats but may differ in a detail not shown here. Equal entries are not always repeated. Where two headings read alike, the source gives them in different places. Some results are limits rather than exact numbers.

A word on the Cmax: it is the highest concentration seen after dosing. A word on the Log P: it is a log measure of how a compound divides between an organic and an aqueous phase. What is called aqueous solubility is the dissolved amount per volume that the medium holds. For orientation: solubility means how much of the substance goes into solution per volume. As to `CC[C@@H]([C@H](C)O)n1ncn(-c2ccc(N3CCN(c4ccc(OC[C@@H]5CO[C@@](Cn6cncn6)(c6ccc(F)cc6F)C5)cc4)CC3)cc2)c1=O` [PSZ, Posaconazole], the Cmax amounted to 4.5 ± 0.2 µM in data set [1] (FaSSIF) and 7 ± 3 µM in data set [1] (FeSSIF). Moreover, the “AUC (area under the dissolution curve)” value in data set [1] (FaSSIF) was found to be 745 ± 18 µM·min; in data set [1] (FeSSIF), 1190 ± 104 µM·min. Besides, the “Final pH” value in data set [1] (FaSSIF) is 6.58 ± 0.01; in data set [1] (FeSSIF), 4.95 ± 0.01. The lipophilicity (Log P) in data set [2] is given as 4.6. In addition, the aqueous solubility in data set [2] is below 1 µg/mL. Besides, the solubility in data set [3] (aqueous buffer, Blank FaSSIF, final pH 5.12) is 0.1 ± 0.04 µM (≈ 0.0701 µg/mL); in data set [3] (aqueous buffer, Blank FeSSIF, final pH 5.11), 0.12 ± 0.02 µM (≈ 0.0841 µg/mL); in data set [3] (simulated gastric fluid, Blank FaSSGF, final pH 1.94), 83 ± 4 µM (≈ 58.2 µg/mL); in data set [3] (FaSSIF, final pH 5.07), 3.6 ± 0.8 µM (≈ 2.52 µg/mL); in data set [3] (FeSSIF, final pH 5.03), 18 ± 5 µM (≈ 12.6 µg/mL). Further, the fraction absorbed in data set [4] is recorded as below 30%.
In the case of `CCC(C(C)O)n1ncn(-c2ccc(N3CCN(c4ccc(OCC5COC(Cn6cncn6)(c6ccc(F)cc6F)C5)cc4)CC3)cc2)c1=O.CCC(C(C)O)n1ncn(-c2ccc(N3CCN(c4ccc(OCC5COC(Cn6cncn6)(c6ccc(F)cc6F)C5)cc4)CC3)cc2)c1=O.Nc1ccc(C(=O)O)cc1.Nc1ccc(C(=O)O)cc1.Nc1ccc(C(=O)O)cc1` (centres unmarked) [PSZ-4ABA, posaconazole-4-aminobenzoic acid (PSZ-4ABA) cocrystal], the “RAUC (AUCPSZ-4ABA/AUCPSZ)” value in data set [1] (FaSSIF) was 4.1 and 4.1 ± 0.3; in data set [1] (FeSSIF) it was 13 and 13 ± 4. The Cmax in data set [1] (FaSSIF) came out at 48 ± 4 µM; in data set [1] (FeSSIF) it was 148 ± 3 µM. For the same compound, the entries for the “AUC (area under the dissolution curve)” value in data set [1] (FaSSIF) and in data set [1] (FeSSIF) were 3052 ± 209 µM·min and 15,670 ± 4612 μM × min, respectively. In addition, the “Final pH” value was found to be 6.37 ± 0.01 in data set [1] (FaSSIF) and 5.01 ± 0.01 in data set [1] (FeSSIF). Further, the “Keu ([coformer]eu/[drug]eu)” value was 0.0028 ± 0.0002 ×10^5 in data set [3] (Blank FaSSGF, final pH 1.94); 1.7 ± 0.6 ×10^5 in data set [3] (Blank FaSSIF, final pH 5.12); 1.2 ± 0.3 ×10^5 in data set [3] (Blank FeSSIF, final pH 5.11); 0.06 ± 0.01 ×10^5 in data set [3] (FaSSIF, final pH 5.07); 0.010 ± 0.003 ×10^5 in data set [3] (FeSSIF, final pH 5.03). Moreover, the “[4ABA]eu (coformer concentration at the eutectic point)” value in data set [3] (Blank FaSSGF, final pH 1.94) was found to be 27.3 ± 0.4 mM; in data set [3] (Blank FaSSIF, final pH 5.12), 17.4 ± 0.1 mM; in data set [3] (Blank FeSSIF, final pH 5.11), 14.5 ± 0.2 mM; in data set [3] (FaSSIF, final pH 5.07) it was 20.2 ± 0.4 mM; in data set [3] (FeSSIF, final pH 5.03), 17.3 ± 0.5 mM. Also, the “Final pH (pH at equilibrium)” value worked out at 1.94 ± 0.01 in data set [3] (Blank FaSSGF, initial pH 1.60); 5.12 ± 0.03 in data set [3] (Blank FaSSIF, initial pH 6.55); 5.11 ± 0.01 in data set [3] (Blank FeSSIF, initial pH 5.03); 5.07 ± 0.04 in data set [3] (FaSSIF, initial pH 6.50); 5.03 ± 0.14 in data set [3] (FeSSIF, initial pH 5.03). Further, the “decrease of Sco (cocrystal solubility) with pH” value in data set [3] (pH increases from 1.9 to 5.1) stood at 20 times.

The record behind these values is patent US12435069B2, “Cocrystals of posaconazole, methods of making and using same” (REGENTS OF THE UNIVERSITY OF MICHIGAN, priority 2019, dated 2025).
